According to the supplement of paper PMC10307832:

How the values were obtained:
Test in all cases: relative viability (nuclei count vs DMSO), 5 days (fraction); higher = more cells survive
ALW-II-49-7 + Decitabine = compound: Cc1ccc(C(=O)Nc2cccc(C(F)(F)F)c2)cc1Nc1cncc(C(N)=O)c1 [ALW-II-49-7] + Nc1ncn([C@H]2C[C@H](O)[C@@H](CO)O2)c(=O)n1 [Decitabine] (partner 2 µM)
Outline: (§1)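 Relative viability equals treated-well nuclei counts divided by vehicle-well nuclei counts. Counts came from 4× images of lung cancer cell lines grown in 1536-well plates for 5 days after pin-tool dosing on the day after seeding. Dosing used one drug alone or a fixed anchor-drug dose plus five library-drug doses (not always all listed) in √10 steps, and values are medians of duplicate plates.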

ALW-II-49-7 + Bortezomib = compound: Cc1ccc(C(=O)Nc2cccc(C(F)(F)F)c2)cc1Nc1cncc(C(N)=O)c1 [ALW-II-49-7] + CC(C)C[C@H](NC(=O)[C@H](Cc1ccccc1)NC(=O)c1cnccn1)B(O)O [Bortezomib] (partner 0.002 µM)
Outline: as §1

ALW-II-49-7 + Luminespib = compound: Cc1ccc(C(=O)Nc2cccc(C(F)(F)F)c2)cc1Nc1cncc(C(N)=O)c1 [ALW-II-49-7] + CCNC(=O)c1noc(-c2cc(C(C)C)c(O)cc2O)c1-c1ccc(CN2CCOCC2)cc1 [Luminespib] (partner 0.01 µM)
Outline: as §1

ALW-II-49-7 + AZD7762 = compound: Cc1ccc(C(=O)Nc2cccc(C(F)(F)F)c2)cc1Nc1cncc(C(N)=O)c1 [ALW-II-49-7] + NC(=O)Nc1cc(-c2cccc(F)c2)sc1C(=O)N[C@H]1CCCNC1 [AZD7762] (partner 0.2 µM)
Outline: as §1

Cell Line | relative viability (ALW-II-49-7 + Decitabine; first compound 0.08 µM) | relative viability (ALW-II-49-7 + Decitabine; first compound 0.253 µM) | relative viability (ALW-II-49-7 + Decitabine; first compound 0.8 µM) | relative viability (ALW-II-49-7 + Decitabine; first compound 2.53 µM) | relative viability (ALW-II-49-7 + Decitabine; first compound 8 µM) | relative viability (ALW-II-49-7 + Bortezomib; first compound 0.08 µM) | relative viability (ALW-II-49-7 + Bortezomib; first compound 0.253 µM) | relative viability (ALW-II-49-7 + Bortezomib; first compound 0.8 µM) | relative viability (ALW-II-49-7 + Bortezomib; first compound 2.53 µM) | relative viability (ALW-II-49-7 + Bortezomib; first compound 8 µM) | relative viability (ALW-II-49-7 + Luminespib; first compound 0.08 µM) | relative viability (ALW-II-49-7 + Luminespib; first compound 0.253 µM) | relative viability (ALW-II-49-7 + Luminespib; first compound 0.8 µM) | relative viability (ALW-II-49-7 + Luminespib; first compound 2.53 µM) | relative viability (ALW-II-49-7 + Luminespib; first compound 8 µM) | relative viability (ALW-II-49-7 + AZD7762; first compound 0.08 µM) | relative viability (ALW-II-49-7 + AZD7762; first compound 0.253 µM) | relative viability (ALW-II-49-7 + AZD7762; first compound 0.8 µM) | relative viability (ALW-II-49-7 + AZD7762; first compound 2.53 µM) | relative viability (ALW-II-49-7 + AZD7762; first compound 8 µM)
NCI-H727 | 0.775 | 0.884 | 0.738 | 0.824 | 0.703 | 0.678 | 1.09 | 0.67 | 0.895 | 0.787 | 0.419 | 0.336 | 0.392 | 0.367 | 0.239 | 0.495 | 0.68 | 0.611 | 0.716 | 0.591
NCI-H358 | 0.19 | 0.183 | 0.22 | 0.234 | 0.232 | – | – | – | – | – | 0.272 | 0.318 | 0.244 | 0.322 | 0.245 | 0.51 | 0.711 | 0.405 | – | 0.524
NCI-H1437 | 0.551 | 0.553 | 0.594 | 0.624 | 0.644 | 0.597 | 0.478 | – | 0.436 | 0.5 | 1.13 | 1.12 | 1.11 | 1.08 | 1.06 | 1.02 | 1.15 | 1.01 | 0.99 | 0.873
NCI-H441 | 0.257 | 0.229 | 0.253 | 0.208 | 0.253 | 0.333 | 0.559 | 0.431 | 0.384 | 0.208 | 0.332 | 0.32 | 0.313 | 0.35 | 0.243 | 1.18 | 1.24 | 1.07 | 0.817 | 1.1
EMC-BAC-2 | 1.01 | 1.02 | 0.982 | 0.947 | 0.907 | 1.04 | 0.979 | 1.1 | 1.06 | 0.844 | 1.07 | 1.14 | 1.22 | 1.06 | 0.998 | 1.09 | 1.21 | 0.916 | 1.11 | 0.896
NCI-H647 | 0.322 | 0.321 | 0.396 | 0.374 | 0.307 | 0.858 | 1.13 | 0.799 | 0.725 | 0.801 | 0.134 | 0.206 | 0.236 | 0.167 | 0.154 | 0.348 | 0.402 | 0.419 | – | 0.29
CAL-12T | – | – | – | – | – | 0.923 | – | – | 0.978 | 0.721 | 0.193 | 0.293 | 0.517 | 0.285 | 0.38 | 0.5 | 0.641 | 0.744 | 0.349 | 0.588
NCI-H1792 | 0.553 | 0.356 | 0.486 | 0.506 | 0.633 | 0.745 | 0.878 | 0.82 | 0.922 | 0.95 | – | 0.383 | 0.276 | 0.293 | 0.349 | 0.836 | 0.621 | 0.591 | 0.745 | 0.454
H3255 | 0.611 | 0.511 | 0.662 | 0.577 | 0.425 | 0.974 | 0.841 | 0.933 | 0.679 | 0.625 | 1.02 | 0.851 | 0.972 | 0.876 | 0.648 | 0.938 | 1.06 | 0.874 | 0.801 | 0.574
HCC-78 | 0.68 | 0.639 | 0.71 | 0.666 | 0.619 | 0.463 | 0.434 | 0.405 | – | 0.491 | – | – | – | – | – | 0.614 | 0.693 | 0.684 | 0.611 | 0.713
EBC-1 | – | – | – | – | – | 0.543 | 0.508 | 0.474 | 0.513 | 0.39 | – | – | – | – | – | – | – | – | – | –
A549 | 0.207 | 0.211 | 0.246 | 0.335 | 0.254 | – | – | – | – | – | – | – | – | – | – | – | – | – | – | –
NCI-H1563 | – | – | – | – | – | 0.922 | 0.885 | 0.877 | 0.842 | 0.753 | 0.531 | 0.487 | 0.503 | 0.495 | 0.457 | – | – | – | – | –
SW 900 | 0.506 | 0.487 | – | 0.552 | 0.661 | – | – | – | – | – | 0.16 | 0.141 | 0.191 | 0.171 | 0.155 | 0.616 | 0.485 | – | 0.554 | 0.542
IA-LM | – | – | – | – | – | 1.12 | 0.621 | 0.509 | 0.217 | 0.161 | – | – | – | – | – | – | – | – | – | –
SK-MES-1 | 0.354 | 0.35 | 0.473 | 0.445 | 0.398 | – | – | – | – | – | 0.591 | 0.797 | 0.8 | 0.864 | 0.719 | – | – | – | – | –
Calu-6 | – | – | – | – | – | 1.18 | 0.95 | 1.04 | 0.785 | 0.885 | – | – | – | – | – | – | – | – | – | –
SK-LU-1 | 0.658 | 0.61 | 0.489 | 0.639 | 0.5 | 0.741 | 1.25 | 1.17 | 1.06 | 0.662 | 0.184 | 0.221 | 0.21 | 0.192 | 0.157 | – | – | – | – | –
NCI-H2023 | 0.226 | 0.214 | 0.255 | 0.249 | 0.347 | 1.05 | 0.889 | 1 | 0.942 | 0.666 | 0.524 | 0.754 | 0.919 | 0.682 | 0.476 | – | – | – | – | –
